From patent US20240384268A1, “Oligonucleotides” (Hudson Institute of Medical Research, priority 2021, published 2024)

Biological target: T1, human TLR7 (Homo sapiens, UniProt Q9NYK1)
T1 construct: HA; host or cells: 293XL-hTLR7-HA (HEK293)
T1 sequence (Q9NYK1 27-1049): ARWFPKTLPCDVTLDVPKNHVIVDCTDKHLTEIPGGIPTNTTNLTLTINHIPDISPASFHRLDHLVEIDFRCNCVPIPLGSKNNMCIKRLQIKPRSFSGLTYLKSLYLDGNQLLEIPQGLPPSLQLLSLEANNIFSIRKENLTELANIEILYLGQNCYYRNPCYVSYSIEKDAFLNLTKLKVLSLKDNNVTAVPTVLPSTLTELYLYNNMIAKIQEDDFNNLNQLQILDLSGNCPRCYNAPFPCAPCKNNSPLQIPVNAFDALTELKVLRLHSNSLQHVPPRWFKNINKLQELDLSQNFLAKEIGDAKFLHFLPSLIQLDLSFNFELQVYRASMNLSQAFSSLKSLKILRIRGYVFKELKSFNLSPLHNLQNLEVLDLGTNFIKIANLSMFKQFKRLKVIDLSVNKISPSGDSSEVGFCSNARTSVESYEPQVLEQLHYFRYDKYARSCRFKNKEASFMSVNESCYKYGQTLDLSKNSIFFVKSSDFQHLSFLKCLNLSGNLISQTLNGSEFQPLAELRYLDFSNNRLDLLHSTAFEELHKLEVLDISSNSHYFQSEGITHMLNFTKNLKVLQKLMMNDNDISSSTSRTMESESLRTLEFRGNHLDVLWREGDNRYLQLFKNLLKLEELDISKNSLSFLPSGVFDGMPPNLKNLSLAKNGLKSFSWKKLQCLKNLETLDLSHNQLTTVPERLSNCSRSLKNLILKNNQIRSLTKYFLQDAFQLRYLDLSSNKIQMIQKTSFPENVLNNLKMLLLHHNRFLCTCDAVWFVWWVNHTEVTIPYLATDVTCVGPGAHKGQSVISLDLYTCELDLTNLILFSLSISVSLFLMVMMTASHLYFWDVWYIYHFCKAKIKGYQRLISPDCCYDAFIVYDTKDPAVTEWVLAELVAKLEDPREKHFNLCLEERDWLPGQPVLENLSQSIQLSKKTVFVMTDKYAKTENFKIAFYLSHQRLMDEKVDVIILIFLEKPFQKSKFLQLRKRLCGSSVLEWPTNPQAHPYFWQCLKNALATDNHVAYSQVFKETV
Test: HEK-TLR7 NF-κB-luciferase reporter, R848 stimulation
Assay type: cell-based
Conditions: for TLR7 100 nM (averaged NF-κB-Luciferase level relative to R848 condition): ASO 100 nM; for TLR7 100 nM (averaged NF-κB-Luciferase level relative to R848 condition) / TLR7 500 nM (averaged NF-κB-Luciferase level relative to R848 condition): relative to R848 only, given as fraction; for TLR7 500 nM (averaged NF-κB-Luciferase level relative to R848 condition): ASO 500 nM

Sequence | TLR7 100 nM (averaged NF-κB-Luciferase level relative to R848 condition) | TLR7 500 nM (averaged NF-κB-Luciferase level relative to R848 condition) | TLR7 100 nM (MOE-modified ASO at 100 nM, averaged NF-κB-Luciferase relative to R848 condition) | TLR7 500 nM (MOE-modified ASO at 500 nM, averaged NF-κB-Luciferase relative to R848 condition)
AAAGGACTGAGGAAAG (antisense; LNA-modified, pattern not given here) [CAMSAP1-6273 LNA KL] | 0.513 | 0.267 | – | –
AACACTTCGTGGGGTC (antisense; LNA-modified, pattern not given here) [HPRT LNA-666 V1] | 0.899 | 0.445 | – | –
AACCCCTTTCACCATC (antisense; LNA-modified, pattern not given here) [MB21D1-689 LNA KL] | 0.771 | 0.426 | – | –
AATCCAACAAAGTCTG (antisense; LNA-modified, pattern not given here) [HPRT LNA-692 KL] | 0.727 | 0.433 | – | –
ACACTTCGTGGGGTCCTTTT (antisense; 2'-MOE modified, pattern not given here) [HPRT-663 MOE] | – | – | 0.403 | 0.235
ACCACGTCTGCTCTAA (antisense; LNA-modified, pattern not given here) [CAMSAP1-1635 LNA KL] | 1.078 | 0.532 | – | –
ACGTTCAGTCCTGTCC (antisense; LNA-modified, pattern not given here) [HPRT LNA-294 V1] | 0.601 | 0.136 | – | –
ACTTCGTGGGGTCCTT (antisense; LNA-modified, pattern not given here) [HPRT LNA-663 V1] | 0.804 | 0.736 | – | –
AGATTTCAGAGCAGCT (antisense; LNA-modified, pattern not given here) [EGFR-4885 LNA KL] | 0.438 | 0.021 | – | –
AGCTTCGAGGCCCCAG (antisense; LNA-modified, pattern not given here) [MB21D1-616 LNA V1] | 0.554 | 0.111 | – | –
AGGACTCCAGATGTTT (antisense; LNA-modified, pattern not given here) [HPRT LNA pos cont] | 0.437 | 0.293 | – | –
AGGCCCTTCGCACTTC (antisense; LNA-modified, pattern not given here) [EGFR-1225 LNA V1] | 0.737 | 0.164 | – | –
AGGTCTTGGCTTCGTG (antisense; LNA-modified, pattern not given here) [MB21D1-524 LNA V1] | 0.457 | 0.050 | – | –
AGTGTTGAGATACTCG (antisense; LNA-modified, pattern not given here) [EGFR-3652 LNA KL] | 0.559 | 0.115 | – | –
ATCTGGCAGCCCATCA (antisense; LNA-modified, pattern not given here) [CTNN2B-2516 LNA V1] | 0.663 | 0.279 | – | –
ATGGCCTCCCATCTCC (antisense; LNA-modified, pattern not given here) [HPRT LNA-330 V1] | 0.550 | 0.117 | – | –
ATGTGATGGCCTCCCA (antisense; LNA-modified, pattern not given here) [HPRT LNA-335 V1] | 0.499 | 0.128 | – | –
CACTTCGTGGGGTCCT (antisense; LNA-modified, pattern not given here) [HPRT LNA-664 V1] | 0.868 | 0.240 | – | –

Sequence | TLR7 100 nM (averaged NF-κB-Luciferase level relative to R848 condition) | TLR7 500 nM (averaged NF-κB-Luciferase level relative to R848 condition) | TLR7 100 nM (MOE-modified ASO at 100 nM, averaged NF-κB-Luciferase relative to R848 condition) | TLR7 500 nM (MOE-modified ASO at 500 nM, averaged NF-κB-Luciferase relative to R848 condition)
CATCCACCACGTCGTC (antisense; LNA-modified, pattern not given here) [EGFR-3266 LNA V1] | 0.741 | 0.353 | – | –
CCAACACTTCGTGGGG (antisense; LNA-modified, pattern not given here) [HPRT LNA-668 V1] | 0.808 | 0.446 | – | –
CCACATCCTGTGGCTC (antisense; LNA-modified, pattern not given here) [CAMSAP1-2906 LNA V1] | 0.789 | 0.363 | – | –
CCACTTGGCAGACCAT (antisense; LNA-modified, pattern not given here) [CTNN2B-1575 LNA V1] | 0.765 | 0.470 | – | –
CCAGCAGGTCAGCAAA (antisense; LNA-modified, pattern not given here) [HPRT LNA-388 KL] | 1.101 | 0.942 | – | –
CCCACTTGGCAGACCA (antisense; LNA-modified, pattern not given here) [CTNN2B-1576 LNA V1] | 1.024 | 0.639 | – | –
CCTCCCATCTCCTTCA (antisense; LNA-modified, pattern not given here) [HPRT LNA-326 V1] | 0.758 | 0.843 | – | –
CCTTGCACGTGGCTTC (antisense; LNA-modified, pattern not given here) [EGFR-1013 LNA V1] | 0.617 | 0.281 | – | –
CGCTTTTCTGTCTGGT (antisense; LNA-modified, pattern not given here) [CTNN2B-311 LNA KL] | 0.393 | 0.142 | – | –
CGGCCTCGGAAGCTCT (antisense; LNA-modified, pattern not given here) [MB21D1-168 LNA V1] | 0.594 | 0.139 | – | –
CGTATTATAGCCGATT (antisense; LNA-modified, pattern not given here) [NC1 LNA PS 3-10-3] | 0.754 | 0.226 | – | –
CTGCAGCTTCCTTGTC (antisense; LNA-modified, pattern not given here) [CTNN2B-2136 LNA V1] | 0.467 | 0.053 | – | –
CTTCGTGGGGTCCTTT (antisense; LNA-modified, pattern not given here) [HPRT LNA-662 V1] | 0.685 | 0.233 | – | –
CTTGAAGCATCGTATC (antisense; LNA-modified, pattern not given here) [CTNN2B-3648 LNA KL] | 0.363 | 0.044 | – | –
CTTGGCTTCGTGGAGC (antisense; LNA-modified, pattern not given here) [MB21D1-520 LNA V1] | 0.806 | 0.098 | – | –
GAAAGGTTATGCAAGG (antisense; LNA-modified, pattern not given here) [CTNN2B-916 LNA KL] | 0.166 | 0.101 | – | –
GACTATACGCGCAATA (antisense; LNA-modified, pattern not given here) [NC5 LNA PS 3-10-3] | 0.282 | 0.098 | – | –
